Results: US4812465A, “Triazole derivatives for use as antimycotic agents” (CL Pharma Aktiengesellschaft, priority 1986, dated 1989)
≈ marks a conversion by molar mass, not a printed value. Read-outs that look alike come from different tables or passages of the source.

Legend:
Assay in all cases: In vitro determination of minimum inhibitory concentration (MIC), serial dilution
Assay type in all cases: cell-based
[1] = test system: Trichophyton verrucosum; settings: pH 6.0, 22° C., 14 days; for MIC: 336 h, pH 6, Trichophyton verrucosum
Experimental: (§1) The antimycotic activities of the compounds were measured by in vitro determination of the minimum inhibitory concentration (MIC) for yeasts, molds and dermatophytes.
(§2) 6 dermatophytes, 2 yeasts and 4 molds were used for testing with fungi, as follows:
(§3) The minimum inhibitory concentration (MIC) was determined in serial dilution tests in test tubes. The volume of the liquid nutrient medium in each test tube was 4.5 ml.
(§4) The substances were dissolved in DMSO and diluted with sterile distilled water to 10 concentrations (100, 50, 25, 12.5, 6.25, 3.12, 1.56, 0.78, 0.39 and 0.19 μg/ml). 0.5 ml of each of these dilution steps was added to liquid nutrient medium. Thus, a constant concentration of solvent in all the nutrient media was ensured, irrespective of the active compound concentration.
(§5) A comparison solution which contained only the solvent in appropriate concentration was included when carrying out each of the tests.
(§6) The individual strains were maintained on Sabouraud/beerwort agar slants and, before they were used in a test, they underwent a passage on a modified Sabouraud liquid nutrient medium. The strains were then harvested, washed and converted into a suspension of McFaerland 3 in the case of yeasts and molds and of McFaerland 4-5 in the case of dermatophytes.
(§7) The amount of material inoculated (inoculum) was 100 μl/test tube (inoculated densities: yeasts about 10^3 /ml, molds about 10^4 /ml, dermatophytes about 10^4 /ml). The pH of the liquid nutrient medium was 6.0. After inoculation had taken place the fungi were incubated at 22° C. for 14 days.
(§8) The MIC was then determined. The concentration step at which growth was no longer visible on macroscopic inspection was used for the determination of the MIC. The comparison substance used was 1-(2-(2,4-dichlorophenyl)-2-(2,4-dichlorophenylmethoxy)ethyl)-1H-imidazole(compound A).

[2] = test system: Microsporum canis; settings: 336 h, pH 6, Microsporum canis, pH 6.0, 22° C., 14 days
Experimental: as §1, §2, §3, §4, §5, §6, §7, §8

[3] = test system: Epidermophyton floccosum; settings: pH 6.0, 22° C., 14 days; for MIC: 336 h, pH 6, Epidermophyton floccosum
Experimental: as §1, §2, §3, §4, §5, §6, §7, §8

[4] = test system: Trichophyton rubrum; settings: pH 6.0, 22° C., 14 days; for MIC: 336 h, pH 6, Trichophyton rubrum
Experimental: as §1, §2, §3, §4, §5, §6, §7, §8

[5] = test system: Candida albicans; settings: for MIC: 336 h
Experimental: as §1, §2, §3, §4, §5, §6, §7, §8

[6] = test system: Aspergillus fumigatus
Experimental: as §1, §2, §3, §4, §5, §6, §7, §8

[7] = test system: Mucor mucedo minus; settings: pH 6.0, 22° C., 14 days; for MIC: Mucor mucedo, 336 h, pH 6, Mucor mucedo minus
Experimental: as §1, §2, §3, §4, §5, §6, §7, §8

[8] = test system: Absidia ramosa; settings: pH 6.0, 22° C., 14 days; for MIC: Lichtheimia ramosa, 336 h, pH 6, Absidia ramosa
Experimental: as §1, §2, §3, §4, §5, §6, §7, §8

[9] = test system: Candida tropicalis; settings: 336 h
Experimental: as §1, §2, §3, §4, §5, §6, §7, §8

[10] = test system: Mucor mucedo plus; settings: pH 6.0, 22° C., 14 days; for MIC: Mucor mucedo, 336 h, pH 6, Mucor mucedo plus
Experimental: as §1, §2, §3, §4, §5, §6, §7, §8

[11] = test system: Microsporum gypseum; settings: for MIC: Nannizzia gypsea, 336 h
Experimental: as §1, §2, §3, §4, §5, §6, §7, §8

[12] = test system: Trichophyton mentagrophytes; settings: pH 6.0, 22° C., 14 days; for MIC: 336 h, pH 6, Trichophyton mentagrophytes
Experimental: as §1, §2, §3, §4, §5, §6, §7, §8

[13] = pH 6, Candida albicans, pH 6.0, 22° C., 14 days, read-out: MIC C.alb
[14] = pH 6, Candida tropicalis, pH 6.0, 22° C., 14 days, read-out: MIC C.trop
[15] = pH 6, Microsporum gypseum, pH 6.0, 22° C., 14 days, read-out: MIC Mi.gyp

Row | Structure (SMILES) | MIC [1] [µg/mL] | MIC [2] [µg/mL] | MIC [3] [µg/mL] | MIC [4] [µg/mL] | MIC [7] [µg/mL] | MIC [8] [µg/mL] | MIC [10] [µg/mL] | MIC [12] [µg/mL] | MIC Asp.fu. ([6]; 20160 min, pH 6) | MIC [5, 13] [µg/mL] | MIC [9, 14] [µg/mL] | MIC [11, 15] [µg/mL] | also measured
1 | Clc1ccc(COC(Cn2ccnc2)c2ccc(Cl)cc2Cl)c(Cl)c1 (stereo not shown) [A, 1-(2-(2,4-dichlorophenyl)-2-(2,4-dichlorophenylmethoxy)ethyl)-1H-imidazole, reference compound] | 6.25 (≈ 15 µM) | 6.25 (≈ 15 µM) | 1.56 (≈ 3.75 µM) | 6.25 (≈ 15 µM) | 12.5 (≈ 30 µM) | 12.5 (≈ 30 µM) | 12.5 | 1.56 (≈ 3.75 µM) |  |  |  |  | MIC ([5]; pH 6, read-out: MIC C.alb): 12.5 µg/mL (≈ 30 µM); MIC Asp.fu. ([6]; Aspergillus fumigatus, pH 6.0, 22° C., 14 days): 3,12 μg/ml; MIC ([9]; pH 6, read-out: MIC C.trop): 12.5 µg/mL (≈ 30 µM); MIC ([11]; pH 6, read-out: MIC Mi.gyp): 3.12 µg/mL (≈ 7.5 µM)
2 | Clc1ccc(SCCCNC(Cn2ccnc2)c2ccc(Cl)cc2Cl)cc1 (stereo not shown) [Compound 2, 1-(2-(2,4-dichlorophenyl)-2-(3-(4-chlorophenylthio)propylamino)ethyl)-1H-imidazole] | 0.39 (≈ 0.885 µM) | 1.56 (≈ 3.54 µM) | 6.25 (≈ 14.2 µM) | 0.19 (≈ 0.431 µM) | 25 (≈ 56.7 µM) | 3.12 (≈ 7.08 µM) | 12.5 | 12.5 (≈ 28.4 µM) | 3,12 μg/ml | 3.12 (≈ 7.08 µM) | 1.56 (≈ 3.54 µM) | 3.12 (≈ 7.08 µM) | 
3 | CN(CCCSCc1ccc(Cl)cc1)C(Cn1ccnc1)c1ccc(Cl)cc1Cl (stereo not shown) [Compound 3, 1-(2-(2,4-Dichlorophenyl)-2-(N-methyl-3-(4-chlorobenzylthio)propylamino)ethyl)-1H-imidazole] | 6.25 (≈ 13.3 µM) | 1.56 (≈ 3.33 µM) | 1.56 (≈ 3.33 µM) | 6.25 (≈ 13.3 µM) | 6.25 (≈ 13.3 µM) | 50 (≈ 107 µM) | 6.25 | 6.25 (≈ 13.3 µM) | 25,0 μg/ml | 3.12 (≈ 6.65 µM) | 0.78 (≈ 1.66 µM) | 6.25 (≈ 13.3 µM) | 
4 | Clc1ccc(SCCNC(Cn2ccnc2)c2ccc(Cl)cc2Cl)cc1 (stereo not shown) [Compound 34] | 0.78 (≈ 1.83 µM) | 0.78 (≈ 1.83 µM) | 0.78 (≈ 1.83 µM) | 0.78 (≈ 1.83 µM) | 3.12 (≈ 7.31 µM) | 6.25 (≈ 14.6 µM) | 3.12 | 0.78 (≈ 1.83 µM) | 6,25 μg/ml | 3.12 (≈ 7.31 µM) | 3.12 (≈ 7.31 µM) | 0.78 (≈ 1.83 µM) | 

More lines, main results first:

Row | MIC [1] [µg/mL] | MIC [2] [µg/mL] | MIC [3] [µg/mL] | MIC [4] [µg/mL] | MIC [7] [µg/mL] | MIC [8] [µg/mL] | MIC [10] [µg/mL] | MIC [12] [µg/mL] | MIC Asp.fu. ([6]; 20160 min, pH 6) | MIC [5, 13] [µg/mL] | MIC [9, 14] [µg/mL] | MIC [11, 15] [µg/mL] | Structure (SMILES) | also measured
5 |  |  |  |  |  |  |  |  | 1,56 μg/ml |  |  |  | Clc1ccc(C(Cn2ccnc2)NCCCSc2ccc(Br)cc2)c(Cl)c1 (stereo not shown) [Compound 1, 1-(2-(2,4-Dichlorophenyl)-2-(3-(4-bromophenylthio)propylamino)ethyl)-1H-imidazole] | MIC Tri.ve. [1]: 0,30 μg/ml; MIC Ep.flo [3]: 0,78 μg/ml; MIC Tri.ru. [4]: 0,39 μg/ml; MIC C.alb ([5]; pH 6.0, 22° C., 14 days): 3,12 μg/ml; MIC Mu.mu- ([7]; Mucor mucedo minus): 6,25 μg/ml; MIC Abs.ra. ([8]; Absidia ramosa): 3,12 μg/ml; MIC Mu.mu+ ([10]; Mucor mucedo plus): 6,25 μg/ml; MIC Mi.gyp ([11]; Microsporum gypseum, pH 6.0, 22° C., 14 days): 0,39 μg/ml; MIC Tri.me. [12]: 0,39 μg/ml
6 | 12.5 (≈ 30.4 µM) | 12.5 (≈ 30.4 µM) | 3.12 (≈ 7.58 µM) | 6.25 (≈ 15.2 µM) | 6.25 (≈ 15.2 µM) | 100 (≈ 243 µM) | 12.5 | 12.5 (≈ 30.4 µM) | 100 µg/mL (≈ 243 µM) | 12.5 (≈ 30.4 µM) | 12.5 (≈ 30.4 µM) | 6.25 (≈ 15.2 µM) | Clc1ccc(OCCNC(Cn2cncn2)c2ccc(Cl)cc2Cl)cc1 (stereo not shown) [Compound 14] | 
7 | 3.12 (≈ 7.29 µM) | 6.25 (≈ 14.6 µM) | 3.12 (≈ 7.29 µM) | 3.12 (≈ 7.29 µM) | 3.12 (≈ 7.29 µM) | 25 (≈ 58.4 µM) | 6.25 | 25 (≈ 58.4 µM) | 25,0 μg/ml | 12.5 (≈ 29.2 µM) | 6.25 (≈ 14.6 µM) | 6.25 (≈ 14.6 µM) | Clc1ccc(SCCNC(Cn2cncn2)c2ccc(Cl)cc2Cl)cc1 (stereo not shown) [Compound 33] | 
8 | 12.5 (≈ 26.5 µM) | 100 (≈ 212 µM) | 12.5 (≈ 26.5 µM) | 6.25 (≈ 13.2 µM) | 50 (≈ 106 µM) | 100 (≈ 212 µM) | 12.5 | 25 (≈ 52.9 µM) | 100 µg/mL (≈ 212 µM) | 25 (≈ 52.9 µM) | 12.5 (≈ 26.5 µM) | 6.25 (≈ 13.2 µM) | Clc1ccc(C(Cn2cncn2)NCCSc2ccc(Br)cc2)c(Cl)c1 (stereo not shown) [Compound 36] | 
